This is an account of results in ChEMBL document CHEMBL5390228, “Unnatural Endotype B PPAPs as Novel Compounds with Activity against Mycobacterium tuberculosis” (J Med Chem, 2023).

What is called IC50 is the point on the concentration scale where inhibition reaches its midpoint.

Series [1] has as its system Mycobacterium tuberculosis. As to the kind of experiment: Antimicrobial activity in Mycobacterium tuberculosis H37Rv ATCC 27294 assessed as reduction in metabolic activity by measuring incorporation radioactively labeled [3H] uracil into live bacilli preincubated for 72 hrs followed by [3H] uracil addition and measured after 18 hrs by beta-counter analysis. The series is classed as functional, organism-based. The settings on record: for Activity: time 90.0 hrs.

The target of series [2] is T1, Nuclear receptor subfamily 1 group I member 2 (Homo sapiens, UniProt O75469).
T1 sequence (O75469 whole entry): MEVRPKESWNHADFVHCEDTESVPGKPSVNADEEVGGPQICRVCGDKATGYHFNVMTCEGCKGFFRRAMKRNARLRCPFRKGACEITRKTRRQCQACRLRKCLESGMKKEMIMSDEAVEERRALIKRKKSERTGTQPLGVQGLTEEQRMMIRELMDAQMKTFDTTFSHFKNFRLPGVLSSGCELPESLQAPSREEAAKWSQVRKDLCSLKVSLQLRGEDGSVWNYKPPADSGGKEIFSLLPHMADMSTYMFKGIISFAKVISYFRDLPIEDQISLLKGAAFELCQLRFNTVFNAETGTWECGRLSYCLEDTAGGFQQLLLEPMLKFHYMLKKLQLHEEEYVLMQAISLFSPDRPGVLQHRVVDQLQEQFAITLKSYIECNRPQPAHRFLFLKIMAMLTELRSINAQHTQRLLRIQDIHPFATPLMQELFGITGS
The experiment in a line: Activation of GAL4-DBD fused human PXR LBD expressed in human HepG2 cells co-expressing GAL4-responsive UAS-driven firefly luciferase and renilla luciferase assessed as increase in luciferase activity at 1 to 20 uM incubated for 24 hrs by Dual-Glo luciferase assay relative to control. The conditions noted are these: hepg2, 24 h, dose 1-20 µM. It counts as cell-based.

In series [3] the target is T2, Cytochrome P450 2C8 (Homo sapiens, UniProt P10632).
T2 sequence (P10632 whole entry): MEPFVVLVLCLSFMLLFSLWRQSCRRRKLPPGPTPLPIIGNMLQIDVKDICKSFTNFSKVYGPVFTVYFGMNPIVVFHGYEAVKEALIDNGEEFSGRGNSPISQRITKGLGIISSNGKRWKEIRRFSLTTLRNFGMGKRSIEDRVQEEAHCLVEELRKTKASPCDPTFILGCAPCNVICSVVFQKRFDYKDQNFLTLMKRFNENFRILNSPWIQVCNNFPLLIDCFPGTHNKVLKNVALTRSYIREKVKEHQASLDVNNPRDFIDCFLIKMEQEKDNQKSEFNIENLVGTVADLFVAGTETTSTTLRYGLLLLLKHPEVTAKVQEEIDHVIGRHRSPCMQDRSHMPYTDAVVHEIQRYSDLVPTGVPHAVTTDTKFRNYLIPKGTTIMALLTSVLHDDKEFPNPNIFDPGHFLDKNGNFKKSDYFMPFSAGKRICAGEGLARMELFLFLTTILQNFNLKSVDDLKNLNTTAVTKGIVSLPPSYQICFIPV
The experiment in a line: Induction of CYP2C8 activity in human HepaRG cells at 10 uM incubated for 96 hrs by liquid chromatography with tandem mass spectrometry-based substrate cocktail assay. It counts as ADME, cell-based.

Series [4] relates to Mycobacterium tuberculosis. The experiment in a line: Antimicrobial activity in Mycobacterium tuberculosis expressing mCherry infected in human Primary macrophage cells assessed as reduction in number of intracellular bacilli at 7.5 uM by DAPI staining based Confocal laser scanning microscopy. The series is classed as functional, organism-based.
Series [5] can be described thus: Induction of CYP3A4 protein expression in human HepaRG cells at 1 to 20 uM incubated for 24 hrs by targeted mass spectrometry-based immunoassay.
Another series has as its system HepaRG. The experiment in a line: Cytotoxicity against human HepaRG cells assessed as reduction in cell viability at 60 uM incubated for 24 hrs by WST-1 assay. The series is classed as toxicity, cell-based. For orientation: Tetrazolium assays rely on reduction of a dye to a coloured formazan, in cell work by metabolically active cells.
Another series addresses Cytochrome P450 3A4 (Homo sapiens, UniProt P08684). As to the kind of experiment: Induction of CYP3A4 activity in human HepaRG cells at 5 to 10 uM incubated for 96 hrs by liquid chromatography with tandem mass spectrometry-based substrate cocktail assay. The series is classed as ADME, cell-based. The settings on record: dose 5-10 µM.
A further series concerns Macrophage. The experiment in a line: Cytotoxicity against human Primary macrophage cells assessed as reduction in cell viability at 2.5 to 75 uM incubated for 18 hrs by PrestoBlue reagent based fluorescence assay. The series is classed as toxicity. The conditions noted are these: dose 2.5-75 µM.
For series [6], the system named is HepG2. The experiment in a line: Cytotoxicity against human HepG2 cells assessed as reduction in cell viability at 10 to 20 uM incubated for 48 hrs by WST-1 assay. It counts as toxicity, cell-based. The settings on record: hepg2, 48 h, dose 10-20 µM.
For another series, the target named is T3, Cytochrome P450 1A2 (Homo sapiens, UniProt P05177).
T3 sequence (P05177 whole entry): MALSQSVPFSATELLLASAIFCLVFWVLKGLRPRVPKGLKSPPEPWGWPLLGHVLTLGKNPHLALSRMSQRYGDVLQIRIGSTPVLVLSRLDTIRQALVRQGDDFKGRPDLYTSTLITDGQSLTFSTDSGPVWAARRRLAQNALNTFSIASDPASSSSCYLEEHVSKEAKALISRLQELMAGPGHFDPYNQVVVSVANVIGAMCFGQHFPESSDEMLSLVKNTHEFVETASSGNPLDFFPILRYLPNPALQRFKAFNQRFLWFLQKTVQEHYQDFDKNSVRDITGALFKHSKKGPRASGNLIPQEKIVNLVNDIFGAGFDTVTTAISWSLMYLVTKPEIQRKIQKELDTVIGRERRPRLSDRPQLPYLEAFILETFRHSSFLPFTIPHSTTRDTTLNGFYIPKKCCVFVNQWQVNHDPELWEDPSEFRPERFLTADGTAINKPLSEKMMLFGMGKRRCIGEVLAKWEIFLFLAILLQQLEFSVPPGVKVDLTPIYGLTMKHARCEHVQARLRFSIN
The experiment in a line: Induction of CYP1A2 activity in human HepaRG cells at 5 to 10 uM incubated for 96 hrs by liquid chromatography with tandem mass spectrometry-based substrate cocktail assay. The series is classed as ADME, cell-based. The settings on record: dose 5-10 µM.

The subject of the next series is PBMC. As to the kind of experiment: Cytotoxicity against human PBMC cells assessed as reduction in cell viability at 2.5 to 75 uM incubated for 18 hrs by PrestoBlue reagent based fluorescence assay. It counts as toxicity. The conditions noted are these: dose 2.5-75 µM.
Another series addresses Cytochrome P450 2C19 (Homo sapiens, UniProt P33261). The experiment in a line: Induction of CYP2C19 activity in human HepaRG cells at 5 to 10 uM incubated for 96 hrs by liquid chromatography with tandem mass spectrometry-based substrate cocktail assay. The series is classed as ADME, cell-based. The settings on record: dose 5-10 µM.
For a further series, the target named is T4, Cytochrome P450 2B6 (Homo sapiens, UniProt P20813).
T4 sequence (P20813 whole entry): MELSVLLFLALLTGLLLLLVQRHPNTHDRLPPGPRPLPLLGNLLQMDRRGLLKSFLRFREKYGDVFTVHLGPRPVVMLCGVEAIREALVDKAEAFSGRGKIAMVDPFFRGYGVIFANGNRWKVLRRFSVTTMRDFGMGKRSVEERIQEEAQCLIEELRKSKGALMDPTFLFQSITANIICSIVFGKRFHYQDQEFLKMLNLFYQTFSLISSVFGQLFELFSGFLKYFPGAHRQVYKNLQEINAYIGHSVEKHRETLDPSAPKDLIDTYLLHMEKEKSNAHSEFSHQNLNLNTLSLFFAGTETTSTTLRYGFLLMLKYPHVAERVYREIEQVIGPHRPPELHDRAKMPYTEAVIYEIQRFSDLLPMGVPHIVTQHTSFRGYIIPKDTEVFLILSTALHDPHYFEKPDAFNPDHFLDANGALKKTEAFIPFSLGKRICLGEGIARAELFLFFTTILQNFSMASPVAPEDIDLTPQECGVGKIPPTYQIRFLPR
The experiment in a line: Induction of CYP2B6 activity in human HepaRG cells at 5 to 10 uM incubated for 96 hrs by liquid chromatography with tandem mass spectrometry-based substrate cocktail assay. The series is classed as ADME, cell-based. The settings on record: dose 5-10 µM.

In series [7] the test system is Mycobacterium tuberculosis. As to the kind of experiment: Antimicrobial activity in Mycobacterium tuberculosis H37Rv ATCC 27294 infected in human Primary macrophage cells assessed as reduction in intracellular growth of bacteria incubated for 4 days by CFU assay. It counts as functional, organism-based. The conditions noted are these: H37Rv ATCC 27294, Primary macrophage, 96 h.

Series [8] can be described thus: Induction of CYP3A4 mRNA expression in human HepaRG cells at 1 to 20 uM incubated for 24 hrs by RT-qPCR analysis.
For the next series, the target named is Cytochrome P450 2C9 (Homo sapiens, UniProt P11712). The experiment in a line: Induction of CYP2C9 activity in human HepaRG cells at 5 to 10 uM incubated for 96 hrs by liquid chromatography with tandem mass spectrometry-based substrate cocktail assay. The conditions noted are these: dose 5-10 µM. It counts as ADME, cell-based.
Sequence of Cytochrome P450 2C9 (P11712 whole entry): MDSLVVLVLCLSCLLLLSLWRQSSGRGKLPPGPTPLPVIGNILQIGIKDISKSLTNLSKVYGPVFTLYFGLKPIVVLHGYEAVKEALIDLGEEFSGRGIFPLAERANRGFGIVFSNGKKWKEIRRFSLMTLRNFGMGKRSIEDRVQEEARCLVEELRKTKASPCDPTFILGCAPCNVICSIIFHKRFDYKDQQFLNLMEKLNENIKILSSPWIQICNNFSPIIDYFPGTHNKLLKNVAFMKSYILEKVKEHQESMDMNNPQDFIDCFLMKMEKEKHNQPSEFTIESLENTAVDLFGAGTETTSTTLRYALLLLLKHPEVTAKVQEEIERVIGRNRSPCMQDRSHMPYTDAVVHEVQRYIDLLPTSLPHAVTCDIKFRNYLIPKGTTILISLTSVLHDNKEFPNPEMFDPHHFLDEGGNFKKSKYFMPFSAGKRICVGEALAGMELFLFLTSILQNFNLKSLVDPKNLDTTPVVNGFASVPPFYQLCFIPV
Series [9] concerns the target T1, Nuclear receptor subfamily 1 group I member 2. The experiment in a line: Transactivation of human PXR in human HepG2 cells coexpressing firefly luciferase gene under control of CYP3A4 promoter and renilla luciferase assessed as increase in luciferase activity at 1 to 20 uM incubated for 48 hrs by Dual-Glo luciferase assay. The conditions noted are these: hepg2, 48 h.

The test system of series [10] is HepG2. The experiment in a line: Cytotoxicity against human HepG2 cells assessed as fold reduction in cell viability upto 20 uM incubated for 96 hrs by alamarBlue Cell Viability assay relative to control. The series is classed as toxicity, cell-based. The settings on record: hepg2, 96 h.
The target of series [11] is T2, Cytochrome P450 2C8. The experiment in a line: Induction of CYP2C8 activity in human HepaRG cells at 5 to 10 uM incubated for 96 hrs by liquid chromatography with tandem mass spectrometry-based substrate cocktail assay. The series is classed as ADME, cell-based. The conditions noted are these: dose 5-10 µM.
The subject of the next series is A549. The experiment in a line: Cytotoxicity against human A549 cells assessed as reduction in cell viability at 2.5 to 75 uM incubated for 48 hrs by resazurin reagent based fluorescence assay. It counts as toxicity. The conditions noted are these: a549, 48 h, dose 2.5-75 µM.

Activity calls are given as the source filed them. The calls are words filed in the database; no cut-off is given here. Bounds are passed on as bounds.

Sequence of Cytochrome P450 2C19 (P33261 whole entry): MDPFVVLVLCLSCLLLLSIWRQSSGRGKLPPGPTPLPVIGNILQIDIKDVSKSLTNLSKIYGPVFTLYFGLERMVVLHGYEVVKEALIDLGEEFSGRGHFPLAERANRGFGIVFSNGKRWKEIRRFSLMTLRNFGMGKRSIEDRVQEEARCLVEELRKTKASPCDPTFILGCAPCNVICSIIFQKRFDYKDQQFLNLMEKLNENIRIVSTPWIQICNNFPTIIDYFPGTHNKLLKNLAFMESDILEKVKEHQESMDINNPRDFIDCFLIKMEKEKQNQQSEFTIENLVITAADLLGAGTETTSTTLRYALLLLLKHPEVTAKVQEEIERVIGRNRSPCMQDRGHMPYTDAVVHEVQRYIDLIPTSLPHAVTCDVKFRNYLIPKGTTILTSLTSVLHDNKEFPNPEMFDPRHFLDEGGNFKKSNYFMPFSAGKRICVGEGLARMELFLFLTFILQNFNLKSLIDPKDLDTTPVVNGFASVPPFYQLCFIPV
Sequence of Cytochrome P450 3A4 (P08684 whole entry): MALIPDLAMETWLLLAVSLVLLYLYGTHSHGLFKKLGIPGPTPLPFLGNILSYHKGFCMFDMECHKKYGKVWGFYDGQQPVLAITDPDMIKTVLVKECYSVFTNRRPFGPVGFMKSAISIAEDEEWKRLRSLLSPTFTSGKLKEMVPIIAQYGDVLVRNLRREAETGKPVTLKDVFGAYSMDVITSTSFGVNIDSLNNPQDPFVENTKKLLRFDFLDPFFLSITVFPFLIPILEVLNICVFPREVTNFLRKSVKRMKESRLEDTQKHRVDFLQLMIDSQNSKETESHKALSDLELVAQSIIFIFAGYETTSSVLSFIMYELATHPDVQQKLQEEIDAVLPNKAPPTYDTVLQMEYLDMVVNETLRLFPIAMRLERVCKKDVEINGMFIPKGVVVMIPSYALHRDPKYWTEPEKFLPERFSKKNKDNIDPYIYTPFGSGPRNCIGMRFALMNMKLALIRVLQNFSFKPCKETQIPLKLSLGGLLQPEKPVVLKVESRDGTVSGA

With `C=CC[C@@]12C[C@H](CC=C(C)C)C(C)(C)[C@@](CC=C)(C(=O)C(C(=O)c3ccccc3)=C1O)C2=O`, in [1], the result was inactive.

Turning to `CC(C)=CC[C@H]1C[C@@]2(CC=C(C)C)C(=O)[C@](CC=C(C)C)(C(=O)C(C(=O)C(C)C)=C2O)C1(C)C`, the result in series [1] was inactive.

With `C=CC[C@@]12C(=O)C(C(=O)c3ccccc3)=C(O)[C@@](Cc3ccccc3)(C[C@H](Cc3ccccc3)C1(C)C)C2=O`, the result in [1] was inactive.

For `C=CC[C@@]12C(=O)C(C(=O)c3ccccc3)=C(O)[C@@](Cc3ccccc3)(C[C@H](CC=C(C)C)C1(C)C)C2=O`, the outcome in [1] was inactive.

Consider `CO[C@H]1/C=C/O[C@@]2(C)Oc3c(C)c(O)c4c(O)c(c(/C=N/N5CCN(C)CC5)c(O)c4c3C2=O)NC(=O)/C(C)=C\C=C\[C@H](C)[C@H](O)[C@@H](C)[C@@H](O)[C@@H](C)[C@H](OC(C)=O)[C@@H]1C` [RIFAMPIN], for which the Activity entry in series [2] is “Active”; at Cytochrome P450 2C8 [3], “Not Active”.

With `CC(=O)C1=C(O)[C@@]2(CC=C(C)C)C[C@H](CC=C(C)C)C(C)(C)[C@@](CC=C(C)C)(C1=O)C2=O`, the outcome in series [1] was inactive.

As to `C=CC[C@@]12C[C@H](CC=C(C)C)C(C)(C)[C@@](CC=C)(C(=O)C(C(C)=O)=C1[O-])C2=O.[Na+]`, the result in series [4] and in series [1] was Active. Also, the Activity entry is “Not Active” in series [5]; less than 80% with HepaRG; “Not Active” at Cytochrome P450 3A4; “Dose-Dependent Effect” in [2]; “Non-Toxic” with Macrophage; “Toxic” in the series with HepG2 [6]. Moreover, the Activity result is on record as “Not Active” at Cytochrome P450 1A2; “Non-Toxic” in the series with PBMC; “Not Active” on Cytochrome P450 2C19; “Not Active” at Cytochrome P450 2B6; “Not Active” in series [8]; “Not Active” at Cytochrome P450 2C9. For the same molecule, the Activity entry in series [9] is given as “Dose-Dependent Effect”; at Cytochrome P450 2C8 [11], “Not Active”; in the series with A549 it was “Non-Toxic”. In addition, the IC50 in series [7] was 6.8 µM; in series [1] it was 38.8 µM. In the series with HepG2 [10], the “fold change (FC)” value was 5.
